# Measurements: PubChem BioAssay (NCI)
# Where “and” joins values, the source holds several entries; their conditions need not be identical. Equal values may be shown once.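 Dose response: 5 concentrations. Exposure: 48 h. Format: 96-well plates. Endpoint: linear interpolation; highest concentration if not reached. At the GI50, growth is halved. At the TGI there is no net growth.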
# How the values were obtained:
# Test in all cases: DTP human tumour cell line panel, 48 h
# U251 CNS = system: U251 CNS
# OVCAR-5 ovarian = system: OVCAR-5 ovarian
# BT-549 breast = system: BT-549 breast
# SF-539 CNS = system: SF-539 CNS
# M14 melanoma = system: M14 melanoma
# NCI-H23 lung = system: NCI-H23 lung
# UACC-257 melanoma = system: UACC-257 melanoma
# OVCAR-4 ovarian = system: OVCAR-4 ovarian
# NCI-H226 lung = system: NCI-H226 lung
# DU-145 prostate = system: DU-145 prostate
Structure (SMILES),GI50 (U251 CNS),TGI (U251 CNS),GI50 (OVCAR-5 ovarian),TGI (OVCAR-5 ovarian),GI50 (BT-549 breast),TGI (BT-549 breast),GI50 (SF-539 CNS),TGI (SF-539 CNS),GI50 (M14 melanoma),TGI (M14 melanoma),GI50 (NCI-H23 lung),TGI (NCI-H23 lung),GI50 (UACC-257 melanoma),TGI (UACC-257 melanoma),GI50 (OVCAR-4 ovarian),TGI (OVCAR-4 ovarian),GI50 (NCI-H226 lung),TGI (NCI-H226 lung),GI50 (DU-145 prostate),TGI (DU-145 prostate)
COc1ccc(-c2nc(-c3nc4ccc(OC)cc4[nH]3)c3ccccn23)cc1,4.42 µM,> 100 µM,11.4 µM,> 100 µM,3.2 µM,8.86 µM,9.71 µM,> 100 µM,3.74 µM,16 µM,12.7 µM,> 100 µM,4.39 µM,26.1 µM,4.53 µM,> 100 µM,6.57 µM,> 100 µM,4.11 µM,> 100 µM
COc1cc([N+](=O)[O-])c(OC)cc1-c1nc2sc(Cl)cn2c1/C(N)=N/C(=N)N,3.41 µM,> 100 µM,19.7 µM,45.4 µM,11.4 µM,47.5 µM,4.53 µM,50.8 µM,3.51 µM,13 µM,3.43 µM,10.8 µM,8 µM,22.6 µM,5.67 µM,33.8 µM,20.9 µM,53.9 µM,7.2 µM,27.9 µM
CC(C)(C)n1cc(-c2ccnc(NCCCNS(=O)(=O)c3ccc(C(F)(F)F)cc3)c2)c(-c2cccc(O)c2)n1,1.71 µM,3.53 µM,1.81 µM,3.4 µM,1.61 µM,3.05 µM,1.65 µM,3.09 µM,2 µM,3.93 µM,1.67 µM,3.18 µM,2.07 µM,4.6 µM,2.29 µM,5.25 µM,2.35 µM,5.71 µM,1.94 µM,3.58 µM
CN[C@@H](C)C(=O)N[C@H](C(=O)N1CCC[C@H]1C(=O)Nc1snnc1-c1ccccc1)C1CCCCC1,36.3 µM,> 100 µM,> 100 µM,> 100 µM,–,> 81.5 µM,1.08 µM,> 38.6 µM,24.6 µM,55.8 µM,38.4 µM,> 100 µM,0.405 µM,25.5 µM,5.58 µM,99.6 µM,> 100 µM,> 100 µM,65.4 µM,> 100 µM
COc1cnc2c(c1)C(=O)c1c-2n(CCCn2ccnc2)c(=O)c2cc(F)ccc12,< 0.01 µM,0.179 µM,0.119 µM,0.789 µM,0.0688 µM,2.86 µM,0.0245 µM,0.195 µM,< 0.01 µM,0.635 µM,0.0171 µM,0.565 µM,0.102 µM,0.493 µM,0.118 µM,1.63 µM,0.0251 µM,0.213 µM,< 0.01 µM,1.17 µM
C(#Cc1ccccc1C#Cc1cccs1)c1cccs1,66.8 µM,> 100 µM,25.6 µM,83.2 µM,> 100 µM,> 100 µM,71.5 µM,> 100 µM,32.9 µM,> 100 µM,51.6 µM,> 100 µM,> 100 µM,> 100 µM,83.8 µM,> 100 µM,39.2 µM,> 100 µM,> 100 µM,> 100 µM
CC1CCC(NC(=O)N(CCCl)N=O)CC1 (stereo not given),20.8 µM,65.9 µM,–,105 µM,–,57.2 µM,18.9 µM,43.8 µM and 62.3 µM,14.3 µM,30.5 µM and 66.5 µM,61.8 µM,129 µM,33.5 µM,89.8 µM,–,61.1 µM,36.1 µM,150 µM,–,227 µM
COC(=O)c1nc(-c2ccccc2)oc1S(=O)(=O)Cc1ccccc1,15.5 µM,29 µM,3.12 µM,11.3 µM,6.5 µM,19.1 µM,11.2 µM,23.7 µM,3.87 µM,16.3 µM,16.2 µM,34.4 µM,13.7 µM,27.2 µM,1.82 µM,3.4 µM,13.9 µM,31.4 µM,3.46 µM,10.9 µM
COc1c(C)c2c(c(O)c1C/C=C(\C)CCC(=O)O)C(=O)OC2,0.0905 µM,> 100 µM,1.79 µM,> 100 µM,0.818 µM,> 100 µM,0.491 µM,> 100 µM,0.343 µM,> 100 µM,0.282 µM,> 100 µM,0.434 µM,> 100 µM,0.776 µM,> 100 µM,2.58 µM,> 100 µM,0.57 µM,> 100 µM
C=C(C)C(=O)Nc1ccc(NC(C)C)cc1,> 100 µM,> 100 µM,> 100 µM,> 100 µM,> 100 µM,> 100 µM,> 100 µM,> 100 µM,> 100 µM,> 100 µM,> 100 µM,> 100 µM,> 100 µM,> 100 µM,> 100 µM,> 100 µM,> 100 µM,> 100 µM,> 100 µM,> 100 µM
C=C1CCC2C3(C)COC(c4ccc(N(C)C)cc4)OC3CCC2(C)C1C/C=C1/C(=O)OCC1O (stereo not given),2.1 µM,5.21 µM,7.7 µM,20 µM,2.95 µM,11.1 µM,8.07 µM,20.5 µM,4.1 µM,16.7 µM,4.37 µM,15.7 µM,13.1 µM,26.8 µM,2.5 µM,8.98 µM,6.09 µM,18.2 µM,3.01 µM,10.4 µM
COc1cc(NC(C)CCCNC2CN3CCC2CC3)c2ncccc2c1 (stereo not given),10.6 µM,24 µM,14.5 µM,28.3 µM,14.8 µM,29.3 µM,15.2 µM,30.5 µM,3.92 µM,13.5 µM,13.8 µM,29.6 µM,2.39 µM,5.74 µM,1.84 µM,6.51 µM,13.6 µM,27.7 µM,16.4 µM,30.2 µM
